Measurements from patent publication US9029370B2, “Substituted benzamide derivatives” (Hoffmann-La Roche Inc., priority 2011, dated 2015).
Counter-ions that a name gives are not always drawn.

Tests used:
mouse TAAR1 = mouse TAAR1 (Mus musculus (Mouse), UniProt Q923Y8); assay: Radioligand binding assay on mouse TAAR1; details: mouse TAAR1, HEK-293 membranes; first value of the pair (before the slash); read-out: Ki (μM) mouse/rat
Method: (§1) For the construction of expression plasmids the coding sequences of human, rat and mouse TAAR 1 were amplified from genomic DNA essentially as described by Lindemann et al.. The Expand High Fidelity PCR System (Roche Diagnostics) was used with 1.5 mM Mg^2+ and purified PCR products were cloned into pCR2.1-TOPO cloning vector (Invitrogen) following the instructions of the manufacturer. PCR products were subcloned into the pIRESneo2 vector (BD Clontech, Palo Alto, Calif.), and expression vectors were sequence verified before introduction in cell lines.
(§2) HEK293 cells (ATCC # CRL-1573) were cultured essentially as described by Lindemann et al. (2005). For the generation of stably transfected cell lines HEK293 cells were transfected with the pIRESneo2 expression plasmids containing the TAAR coding sequences (described above) with Lipofectamine 2000 (Invitrogen) according to the instructions of the manufacturer, and 24 hrs post transfection the culture medium was supplemented with 1 mg/ml G418 (Sigma, Buchs, Switzerland). After a culture period of about 10 d clones were isolated, expanded and tested for responsiveness to trace amines (all compounds purchased from Sigma) with the cAMP Biotrak Enzyme immunoassay (EIA) System (Amersham) following the non-acetylation EIA procedure provided by the manufacturer.
Radioligand Binding Assay on Mouse TAAR1
(§3) Membrane Preparation and Radioligand Binding.
(§4) HEK-293 cells stably expressing mouse TAAR1 were maintained at 37° C. and 5% CO2 in DMEM high glucose medium, containing fetal calf serum (10%, heat inactivated for 30 min at 56° C.), penicillin/streptomycin (1%), and 375 μg/ml geneticin (Gibco). Cells were released from culture flasks using trypsin/EDTA, harvested, washed twice with ice-cold PBS (without Ca^2+ and Mg^2+), pelleted at 1′000 rpm for 5 min at 4° C., frozen and stored at −80° C. […] The homogenate was centrifuged at 48′000×g for 30 min at 4° C. Subsequently, the supernatant was removed and discarded, and the pellet resuspended in 20 ml HEPES-NaOH (20 mM, pH 7.4) containing 0.1 mM EDTA using the Polytron (20 s at 14′000 rpm). This procedure was repeated and the final pellet resuspended in HEPES-NaOH containing 0.1 mM EDTA and homogenized using the Polytron. Typically, aliquots of 2 ml membrane portions were stored at −80° C. With each new membrane batch the dissociation constant (Kd) was determined via a saturation curve. […] Nonspecific binding was defined as the amount of ^3[H]-(S)-4-[(ethyl-phenyl-amino)-methyl]-4,5-dihydro-oxazol-2-ylamine bound in the presence of 10 μM unlabeled ligand. All compounds were tested at a broad range of concentrations (10 pM to 10 μM) in duplicates. […] The 96 deep well plates were incubated for 1 hr at 4° C. Incubations were terminated by rapid filtration through Unifilter-96 plates (Packard Instrument Company) and glass filters GF/C (Perkin Elmer) presoaked for 1 hr in polyethylenimine (0.3%) and washed 3 times with 1 ml of cold binding buffer. After addition of 45 μl of Microscint 40 (PerkinElmer) the Unifilter-96 plate was sealed and after 1 hr the ratioactivity counted using a TopCount Microplate Scintillation Counter (Packard Instrument Company).

rat TAAR1 = rat TAAR1 (Rattus norvegicus (Rat), UniProt Q923Y9); assay: Radioligand binding assay on rat TAAR1; details: rat TAAR1, HEK-293 membranes; second value of the pair (line below); read-out: Ki (μM) mouse/rat
Method: as §1, §2
Radioligand Binding Assay on Rat TAAR1
as §3
as §4, with “rat” for “mouse”

Sequence of mouse TAAR1 (Q923Y8 whole entry): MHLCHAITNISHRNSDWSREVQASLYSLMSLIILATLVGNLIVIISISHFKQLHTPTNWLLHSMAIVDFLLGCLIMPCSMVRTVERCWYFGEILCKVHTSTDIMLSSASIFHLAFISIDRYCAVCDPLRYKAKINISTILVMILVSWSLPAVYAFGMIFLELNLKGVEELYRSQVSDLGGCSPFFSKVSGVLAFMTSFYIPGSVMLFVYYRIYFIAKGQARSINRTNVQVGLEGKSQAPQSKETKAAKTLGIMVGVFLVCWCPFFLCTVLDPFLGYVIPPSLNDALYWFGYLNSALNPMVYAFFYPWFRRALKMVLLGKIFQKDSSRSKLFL
Sequence of rat TAAR1 (Q923Y9 whole entry): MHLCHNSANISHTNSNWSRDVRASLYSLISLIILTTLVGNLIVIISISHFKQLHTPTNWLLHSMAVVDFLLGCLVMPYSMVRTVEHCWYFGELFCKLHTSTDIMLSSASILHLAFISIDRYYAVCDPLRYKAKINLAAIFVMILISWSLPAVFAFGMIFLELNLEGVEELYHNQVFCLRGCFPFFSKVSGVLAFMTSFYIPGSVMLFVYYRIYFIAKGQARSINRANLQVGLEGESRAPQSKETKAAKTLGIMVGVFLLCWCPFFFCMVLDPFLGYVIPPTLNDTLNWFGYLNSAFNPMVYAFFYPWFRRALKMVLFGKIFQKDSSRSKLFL

Structure (SMILES)	Ki (mouse TAAR1)	Ki (rat TAAR1)
N#Cc1cc(NC(=O)Nc2ccc([C@@H]3CNCCO3)cc2F)ccc1F [Example 63, (R)-1-(3-Cyano-4-fluorophenyl)-3-(2-fluoro-4-(morpholin-2-yl)phenyl)urea]	0.0014 µM	0.0007 µM
O=C(Nc1ccc(Cl)cn1)Nc1ccc([C@H]2CNCCO2)cc1Cl [Example 64, (S)-1-(2-Chloro-4-(morpholin-2-yl)phenyl)-3-(5-chloropyridin-2-yl)urea]	0.0015 µM	0.003 µM
N#Cc1ccc(NC(=O)Nc2ccc([C@@H]3CNCCO3)cc2Br)cn1 [Example 65, (R)-1-(2-bromo-4-(morpholin-2-yl)phenyl)-3-(6-cyanopyridin-3-yl)urea]	0.0037 µM	0.0218 µM
N#Cc1ccc(NC(=O)Nc2ccc([C@H]3CNCCO3)cc2Br)cn1 [Example 66, (S)-1-(2-bromo-4-(morpholin-2-yl)phenyl)-3-(6-cyanopyridin-3-yl)urea]	0.0033 µM	0.0161 µM
O=C(Nc1cnc(C(F)(F)F)nc1)Nc1ccc([C@H]2CNCCO2)cc1Br [Example 69, 1-((S)-2-Bromo-4-morpholin-2-yl-phenyl)-3-(2-trifluoromethyl-pyrimidin-5-yl)-urea]	0.0086 µM	0.018 µM
O=C(Nc1cnc(C(F)(F)F)nc1)Nc1ccc([C@@H]2CNCCO2)cc1Br [Example 70, 1-((R)-2-Bromo-4-morpholin-2-yl-phenyl)-3-(2-trifluoromethyl-pyrimidin-5-yl)-urea]	0.0056 µM	0.0103 µM
N#Cc1ccc(OC(F)F)c(NC(=O)Nc2ccc([C@H]3CNCCO3)cc2F)c1 [Example 71, 1-(5-Cyano-2-difluoromethoxy-phenyl)-3-((S)-2-fluoro-4-morpholin-2-yl-phenyl)-urea hydrochloride]	0.0018 µM	0.0012 µM
N#Cc1ccc(OC(F)F)c(NC(=O)Nc2ccc([C@@H]3CNCCO3)cc2F)c1 [Example 72, 1-(5-Cyano-2-difluoromethoxy-phenyl)-3-((R)-2-fluoro-4-morpholin-2-yl-phenyl)-urea hydrochloride]	0.0019 µM	0.001 µM
O=C(Nc1ccc([C@H]2CNCCO2)cc1F)c1cnn(-c2cccc(OC(F)F)c2)c1 [Example 75, (S)-1-(3-(Difluoromethoxy)phenyl)-N-(2-fluoro-4-(morpholin-2-yl)phenyl)-1H-pyrazole-4-carboxamide]	0.0014 µM	0.0011 µM
O=C(Nc1ccc([C@H]2CNCCO2)cc1F)c1cnn(-c2ccc(OC(F)F)cc2)c1 [Example 76, (S)-1-(4-(Difluoromethoxy)phenyl)-N-(2-fluoro-4-(morpholin-2-yl)phenyl)-1H-pyrazole-4-carboxamide]	0.0016 µM	0.0018 µM
O=C(NCc1cccc(OC(F)F)c1)Nc1ccc([C@@H]2CNCCO2)cc1F [Example 77, (R)-1-(3-(Difluoromethoxy)benzyl)-3-(2-fluoro-4-(morpholin-2-yl)phenyl)urea]	0.001 µM	0.0064 µM
O=C(NCc1cccc(OC(F)F)c1)Nc1ccc([C@H]2CNCCO2)cc1F [Example 78, (S)-1-(3-(Difluoromethoxy)benzyl)-3-(2-fluoro-4-(morpholin-2-yl)phenyl)urea]	0.0012 µM	0.0039 µM
N#Cc1ccnc(C(=O)Nc2ccc([C@H]3CNCCO3)cc2F)c1 [Example 79, (S)-4-Cyano-N-(2-fluoro-4-(morpholin-2-yl)phenyl)picolinamide hydrochloride]	0.0022 µM	0.196 µM
O=C(Nc1ccc([C@H]2CNCCO2)cc1F)c1cnn(-c2ccc3c(c2)OC(F)(F)O3)c1 [Example 82, (S)-1-(2,2-Difluorobenzo[d][1,3]dioxol-5-yl)-N-(2-fluoro-4-(morpholin-2-yl)phenyl)-1H-pyrazole-4-carboxamide]	0.0013 µM	0.0016 µM
O=C(Nc1ccc([C@@H]2CNCCO2)c(F)c1)c1ccnc(C(F)(F)F)c1 [Example 83, (R)—N-(3-Fluoro-4-(morpholin-2-yl)phenyl)-2-(trifluoromethyl)isonicotinamide hydrochloride]	0.006 µM	0.0075 µM
CCOc1cc(C(=O)Nc2ccc([C@@H]3CNCCO3)c(F)c2)ccn1 [Example 84, (R)-2-Ethoxy-N-(3-fluoro-4-(morpholin-2-yl)phenyl)isonicotinamide hydrochloride]	0.0036 µM	0.0047 µM
CCOc1ccc(C(=O)Nc2ccc([C@@H]3CNCCO3)c(F)c2)cn1 [Example 85, (R)-6-Ethoxy-N-(3-fluoro-4-(morpholin-2-yl)phenyl)nicotinamide hydrochloride]	0.0033 µM	0.0067 µM
O=C(Nc1ccc([C@@H]2CNCCO2)c(F)c1)c1cnn(-c2ccc(OC(F)F)cc2)c1 [Example 86, (R)-1-(4-(Difluoromethoxy)phenyl)-N-(3-fluoro-4-(morpholin-2-yl)phenyl)-1H-pyrazole-4-carboxamide hydrochloride]	0.0023 µM	0.0007 µM
O=C(Nc1ccc([C@H]2CNCCO2)c(F)c1)c1ccnc(C(F)(F)F)c1 [Example 87, (S)—N-(3-Fluoro-4-(morpholin-2-yl)phenyl)-2-(trifluoromethyl)isonicotinamide hydrochloride]	0.0105 µM	0.0202 µM
CCOc1cc(C(=O)Nc2ccc([C@H]3CNCCO3)c(F)c2)ccn1 [Example 88, (S)-2-Ethoxy-N-(3-fluoro-4-(morpholin-2-yl)phenyl)isonicotinamide hydrochloride]	0.0034 µM	0.0458 µM
CCOc1ccc(C(=O)Nc2ccc([C@H]3CNCCO3)c(F)c2)cn1 [Example 89, (S)-6-Ethoxy-N-(3-fluoro-4-(morpholin-2-yl)phenyl)nicotinamide hydrochloride]	0.0024 µM	0.0254 µM
CCOc1cc(C(=O)Nc2ccc([C@@H]3CNCCO3)c(Cl)c2)ccn1 [Example 91, (R)—N-(3-Chloro-4-(morpholin-2-yl)phenyl)-2-ethoxyisonicotinamide hydrochloride]	0.0053 µM	0.003 µM
CCOc1ccc(C(=O)Nc2ccc([C@@H]3CNCCO3)c(Cl)c2)cn1 [Example 92, (R)—N-(3-Chloro-4-(morpholin-2-yl)phenyl)-6-ethoxynicotinamide hydrochloride]	0.0048 µM	0.0045 µM
O=C(Nc1ccc([C@@H]2CNCCO2)c(Cl)c1)c1cnn(-c2ccc(OC(F)F)cc2)c1 [Example 93, (R)—N-(3-Chloro-4-(morpholin-2-yl)phenyl)-1-(4-(difluoromethoxy)phenyl)-1H-pyrazole-4-carboxamide hydrochloride]	0.0005 µM	0.0012 µM
